In PubChem BioAssay (NCI):
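Cells were grown in 96-well plates and exposed to each compound for 48 hours at five concentrations; endpoints were interpolated linearly between bracketing concentrations, or set to the highest concentration if not reached. TGI marks complete inhibition of growth.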

Tests used:
Assay in all cases: inhibition of tumour cell growth, NCI panel, 48 h
786-0 renal = system: 786-0 renal
A498 renal = system: A498 renal
A549 NSCLC = system: A549 NSCLC
ACHN renal = system: ACHN renal
BT-549 breast = system: BT-549 breast
CAKI-1 renal = system: CAKI-1 renal
COLO 205 colon = system: COLO 205 colon
DU-145 prostate = system: DU-145 prostate
EKVX NSCLC = system: EKVX NSCLC
HCC-2998 colon = system: HCC-2998 colon
HCT-116 colon = system: HCT-116 colon
HCT-15 colon = system: HCT-15 colon
HL-60(TB) leukemia = system: HL-60(TB) leukemia
HOP-62 NSCLC = system: HOP-62 NSCLC
HOP-92 NSCLC = system: HOP-92 NSCLC
HS 578T breast = system: HS 578T breast
HT29 colon = system: HT29 colon
IGROV1 ovarian = system: IGROV1 ovarian
K-562 leukemia = system: K-562 leukemia
KM12 colon = system: KM12 colon
LOX IMVI melanoma = system: LOX IMVI melanoma
M14 melanoma = system: M14 melanoma
MCF7 breast = system: MCF7 breast
MDA-MB-231 breast = system: MDA-MB-231 breast
MDA-MB-435 = system: MDA-MB-435
MDA-N = system: MDA-N
MOLT-4 leukemia = system: MOLT-4 leukemia
NCI-H226 lung = system: NCI-H226 lung
NCI-H23 lung = system: NCI-H23 lung
NCI-H460 lung = system: NCI-H460 lung
NCI-H522 lung = system: NCI-H522 lung
NCI/ADR-RES ovarian = system: NCI/ADR-RES ovarian
OVCAR-3 ovarian = system: OVCAR-3 ovarian
OVCAR-4 ovarian = system: OVCAR-4 ovarian
OVCAR-5 ovarian = system: OVCAR-5 ovarian
OVCAR-8 ovarian = system: OVCAR-8 ovarian
PC-3 prostate = system: PC-3 prostate
RPMI-8226 leukemia = system: RPMI-8226 leukemia
RXF 393 renal = system: RXF 393 renal
SF-268 CNS = system: SF-268 CNS
SF-295 CNS = system: SF-295 CNS
SF-539 CNS = system: SF-539 CNS
SK-MEL-2 melanoma = system: SK-MEL-2 melanoma
SK-MEL-28 melanoma = system: SK-MEL-28 melanoma
SK-MEL-5 melanoma = system: SK-MEL-5 melanoma
SK-OV-3 ovarian = system: SK-OV-3 ovarian
SN12C renal = system: SN12C renal
SNB-19 CNS = system: SNB-19 CNS
SNB-75 CNS = system: SNB-75 CNS
SR leukemia = system: SR leukemia
SW-620 colon = system: SW-620 colon
T-47D breast = system: T-47D breast
TK-10 renal = system: TK-10 renal
U251 CNS = system: U251 CNS
UACC-257 melanoma = system: UACC-257 melanoma
UACC-62 melanoma = system: UACC-62 melanoma
UO-31 renal = system: UO-31 renal
MALME-3M melanoma = system: MALME-3M melanoma
CCRF-CEM leukemia = system: CCRF-CEM leukemia

Measured: TGI

CC(C)(N=NC(C)(C)C(=N)N)C(=N)N
not listed: MALME-3M melanoma | CCRF-CEM leukemia
> 100 µM: all other assays above

N#CC1(C#N)C2=C(CCCC2)NC(c2ccc(Br)cc2)C1(C#N)C#N (stereo unspecified)
15.8 µM: RPMI-8226 leukemia
29.4 µM: KM12 colon
10.1 µM: HT29 colon
16 µM: TK-10 renal
63.6 µM: NCI-H460 lung
3.03 µM: UO-31 renal
30.8 µM: SNB-75 CNS
37.5 µM: A498 renal
31.6 µM: SF-539 CNS
3.06 µM: NCI-H522 lung
11.5 µM: OVCAR-8 ovarian | UACC-257 melanoma
12 µM: K-562 leukemia
6.93 µM: LOX IMVI melanoma
44.6 µM: HS 578T breast
32.4 µM: UACC-62 melanoma
9.85 µM: HCT-15 colon
5.56 µM: SR leukemia
23.9 µM: MDA-MB-231 breast
> 56.4 µM: SK-OV-3 ovarian
30.9 µM: A549 NSCLC
56.5 µM: SF-295 CNS
7.04 µM: M14 melanoma
28.8 µM: SK-MEL-5 melanoma
35.7 µM: HOP-62 NSCLC
20.7 µM: OVCAR-4 ovarian
26.8 µM: PC-3 prostate | U251 CNS
30.3 µM: NCI-H23 lung
3.83 µM: MALME-3M melanoma
6.15 µM: RXF 393 renal
18.2 µM: OVCAR-3 ovarian
3.88 µM: ACHN renal
24.7 µM: SF-268 CNS
3.75 µM: 786-0 renal
25.3 µM: EKVX NSCLC
15.7 µM: MOLT-4 leukemia
34.1 µM: SK-MEL-2 melanoma
46.4 µM: HCC-2998 colon
39 µM: NCI-H226 lung
25.1 µM: DU-145 prostate
25.9 µM: SK-MEL-28 melanoma
14 µM: MDA-N
4.99 µM: CAKI-1 renal
19.9 µM: MCF7 breast
2.88 µM: SW-620 colon
7.06 µM: SN12C renal
2.58 µM: COLO 205 colon
5.41 µM: T-47D breast
> 100 µM: NCI/ADR-RES ovarian
4.15 µM: HCT-116 colon
9.24 µM: IGROV1 ovarian
24.9 µM: OVCAR-5 ovarian
30.1 µM: SNB-19 CNS
26.9 µM: BT-549 breast
9.05 µM: MDA-MB-435
18.9 µM: HOP-92 NSCLC

CCN(CC)CCN1C=CC(C)C(C(=O)O)C1C(N)=O (stereo unspecified)
not listed: SF-539 CNS | MALME-3M melanoma
> 100 µM: all other assays above
